Measurements reported in PubChem BioAssay AID1963870 (Molecular Pharmacology Branch, DTP, NCI, 2024).

System: 292921-168-R-J2-PDC KRAS tumor spheroid viability
Experiment: Anticancer human tumor 292921-168-R-J2-PDC patient-derived pancreatic carcinoma cell line growth inhibition [KRAS2]
Conditions: spheroids with HUVEC and MSC; for viability, T/C: stronger effect = lower value
Summary of the method: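 Combination screen of spheroid viability in tumor-cell co-cultures with endothelial (HUVEC) and mesenchymal stem cell stroma. Each agent was tested in half-log dilutions, topping at clinical Cmax or at 10 microM without a known Cmax.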

[1] = curve of first compound, second compound 0.1 µM
[2] = curve of first compound, second compound 0.316 µM
[3] = curve of first compound, second compound 1 µM
[4] = curve of first compound, second compound 3.16 µM
[5] = curve of first compound, second compound 10 µM
[6] = second compound 0.1 µM, first compound 0.0316 µM
[7] = second compound 0.1 µM, first compound 0.1 µM
[8] = second compound 0.1 µM, first compound 0.316 µM
[9] = second compound 0.1 µM, first compound 1 µM
[10] = second compound 0.1 µM, first compound 3.16 µM
[11] = second compound 0.1 µM, first compound 10 µM
[12] = second compound 0.316 µM, first compound 0.0316 µM
[13] = second compound 0.316 µM, first compound 0.1 µM
[14] = second compound 0.316 µM, first compound 0.316 µM
[15] = second compound 0.316 µM, first compound 1 µM
[16] = second compound 0.316 µM, first compound 3.16 µM
[17] = second compound 0.316 µM, first compound 10 µM
[18] = second compound 1 µM, first compound 0.0316 µM
[19] = second compound 1 µM, first compound 0.1 µM
[20] = second compound 1 µM, first compound 0.316 µM
[21] = second compound 1 µM, first compound 1 µM
[22] = second compound 1 µM, first compound 3.16 µM
[23] = second compound 1 µM, first compound 10 µM
[24] = second compound 3.16 µM, first compound 0.0316 µM
[25] = second compound 3.16 µM, first compound 0.1 µM
[26] = second compound 3.16 µM, first compound 0.316 µM
[27] = second compound 3.16 µM, first compound 1 µM
[28] = second compound 3.16 µM, first compound 3.16 µM
[29] = second compound 3.16 µM, first compound 10 µM
[30] = second compound 10 µM, first compound 0.0316 µM
[31] = second compound 10 µM, first compound 0.1 µM
[32] = curve of first compound, second compound 0.0316 µM
[33] = second compound 0.0316 µM, first compound 0.0316 µM
[34] = second compound 0.0316 µM, first compound 0.1 µM
[35] = second compound 0.1 µM, first compound 0.000316 µM
[36] = second compound 0.1 µM, first compound 0.001 µM
[37] = second compound 0.1 µM, first compound 0.00316 µM
[38] = second compound 0.1 µM, first compound 0.01 µM
[39] = second compound 0.316 µM, first compound 0.000316 µM
[40] = second compound 0.316 µM, first compound 0.001 µM
[41] = second compound 0.316 µM, first compound 0.00316 µM
[42] = second compound 0.316 µM, first compound 0.01 µM
[43] = second compound 1 µM, first compound 0.000316 µM
[44] = second compound 1 µM, first compound 0.001 µM
[45] = second compound 1 µM, first compound 0.00316 µM
[46] = second compound 1 µM, first compound 0.01 µM
[47] = second compound 3.16 µM, first compound 0.000316 µM
[48] = second compound 3.16 µM, first compound 0.001 µM
[49] = second compound 3.16 µM, first compound 0.00316 µM
[50] = second compound 3.16 µM, first compound 0.01 µM
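Further: drug exposure lasted seven days after spheroids formed for three days.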
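Wherever viability, T/C is given: percent of DMSO vehicle control viability which is 100%.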

Cn1nccc1Nc1nccc(-c2cc3c(s2)C(C)(C)N(CCN2CCOCC2)C3=O)n1 + C=CC(=O)N1CCN(c2nc(=O)n(-c3c(C)ccnc3C(C)C)c3nc(-c4c(O)cccc4F)c(F)cc23)C(C)C1
IC50 [1]: 122 nM | IC50 [2]: 131 nM | IC50 [3]: 111 nM | IC50 [4]: 77.7 nM | IC50 [5]: < 31.6 nM | viability, T/C [6]: 95.1% | viability, T/C [7]: 55.6% | viability, T/C [8]: 23.7% | viability, T/C [9]: 12.3% | viability, T/C [10]: 11.2% | viability, T/C [11]: 11.1% | viability, T/C [12]: 107% | viability, T/C [13]: 58.5% | viability, T/C [14]: 21.9% | viability, T/C [15]: 13.7% | viability, T/C [16]: 12.4% | viability, T/C [17]: 12.6% | viability, T/C [18]: 115% | viability, T/C [19]: 52.7% | viability, T/C [20]: 22.5% | viability, T/C [21]: 15.2% | viability, T/C [22]: 12.5% | viability, T/C [23]: 14.4% | viability, T/C [24]: 76.6% | viability, T/C [25]: 42.5% | viability, T/C [26]: 19.2% | viability, T/C [27]: 14.3% | viability, T/C [28]: 13.8% | viability, T/C [29]: 17.2% | viability, T/C [30]: 25.2% | viability, T/C [31]: 18% | viability, T/C (second compound 10 µM, first compound 0.316 µM): 14.6% | viability, T/C (second compound 10 µM, first compound 1 µM): 14.4% | viability, T/C (second compound 10 µM, first compound 3.16 µM): 15.1% | viability, T/C (second compound 10 µM, first compound 10 µM): 19.5%

CC(=O)Nc1cccc(-n2c(=O)n(C3CC3)c(=O)c3c(Nc4ccc(I)cc4F)n(C)c(=O)c(C)c32)c1
viability, T/C (compound 0.0001 µM): 73.6% [middle of 5 runs] | viability, T/C (compound 0.000316 µM): 51.5% [middle of 5 runs] | viability, T/C (compound 0.001 µM): 28.9% [middle of 5 runs] | viability, T/C (compound 0.00316 µM): 17.8% [middle of 5 runs] | viability, T/C (compound 0.01 µM): 12.7% [middle of 5 runs] | viability, T/C (compound 0.0316 µM): 8.87% [middle of 4 runs] | IC50 (curve of compound): 0.328 nM [middle of 5 runs]

CCNC(=O)CC1N=C(c2ccc(Cl)cc2)c2cc(OC)ccc2-n2c(C)nnc21 (configuration not stated) + C=CC(=O)N1CCN(c2nc(OCC3CCCN3C)nc3c2CCN(c2cccc4cccc(C)c24)C3)CC1CC#N
IC50 [32]: > 10000 nM | IC50 [1]: 1230 nM | IC50 [2]: 644 nM | IC50 [3]: < 31.6 nM | IC50 [4]: < 31.6 nM | viability, T/C [33]: 104% | viability, T/C [34]: 99.5% | viability, T/C (second compound 0.0316 µM, first compound 0.316 µM): 69.9% | viability, T/C (second compound 0.0316 µM, first compound 1 µM): 63.6% | viability, T/C (second compound 0.0316 µM, first compound 3.16 µM): 53.9% | viability, T/C (second compound 0.0316 µM, first compound 10 µM): 49.2% | viability, T/C [6]: 94% | viability, T/C [7]: 90.2% | viability, T/C [8]: 59.1% | viability, T/C [9]: 53.7% | viability, T/C [10]: 48% | viability, T/C [11]: 34.3% | viability, T/C [12]: 106% | viability, T/C [13]: 92.2% | viability, T/C [14]: 59.2% | viability, T/C [15]: 45.1% | viability, T/C [16]: 34.2% | viability, T/C [17]: 29.2% | viability, T/C [18]: 42.4% | viability, T/C [19]: 33% | viability, T/C [20]: 26.1% | viability, T/C [21]: 18.4% | viability, T/C [22]: 13.7% | viability, T/C [23]: 8.19% | viability, T/C [24]: 0.21% | viability, T/C [25]: 0.11% | viability, T/C [26]: 0.1% | viability, T/C [27]: 0.1% | viability, T/C [28]: 0.1% | viability, T/C [29]: 0.26%

CN(C)C/C=C/C(=O)Nc1cc2c(Nc3ccc(F)c(Cl)c3)ncnc2cc1O[C@H]1CCOC1 + C=CC(=O)N1CCN(c2nc(OCC3CCCN3C)nc3c2CCN(c2cccc4cccc(C)c24)C3)CC1CC#N
IC50 [32]: > 100 nM | IC50 [1]: > 100 nM | IC50 [2]: > 100 nM | IC50 [3]: 9.38 nM | IC50 [4]: < 0.316 nM | viability, T/C (second compound 0.0316 µM, first compound 0.000316 µM): 110% | viability, T/C (second compound 0.0316 µM, first compound 0.001 µM): 97.6% | viability, T/C (second compound 0.0316 µM, first compound 0.00316 µM): 89.9% | viability, T/C (second compound 0.0316 µM, first compound 0.01 µM): 85.3% | viability, T/C [33]: 76.9% | viability, T/C [34]: 71.9% | viability, T/C [35]: 99.2% | viability, T/C [36]: 98.1% | viability, T/C [37]: 85.3% | viability, T/C [38]: 84.8% | viability, T/C [6]: 71.4% | viability, T/C [7]: 68.2% | viability, T/C [39]: 77.3% | viability, T/C [40]: 85.3% | viability, T/C [41]: 64.7% | viability, T/C [42]: 60.5% | viability, T/C [12]: 61.6% | viability, T/C [13]: 49.3% | viability, T/C [43]: 56.8% | viability, T/C [44]: 60% | viability, T/C [45]: 50.3% | viability, T/C [46]: 49.5% | viability, T/C [18]: 45.5% | viability, T/C [19]: 34.8% | viability, T/C [47]: 0.73% | viability, T/C [48]: 1.26% | viability, T/C [49]: 0.25% | viability, T/C [50]: 0.27% | viability, T/C [24]: 0.43% | viability, T/C [25]: 0.2%

CN(C)C/C=C/C(=O)Nc1cc2c(Nc3ccc(F)c(Cl)c3)ncnc2cc1O[C@H]1CCOC1 + C=CC(=O)N1CCN(c2nc(=O)n(-c3c(C)ccnc3C(C)C)c3nc(-c4c(O)cccc4F)c(F)cc23)C(C)C1
IC50 [1]: > 100 nM | IC50 [2]: > 100 nM | IC50 [3]: > 100 nM | IC50 [4]: > 100 nM | IC50 [5]: < 0.316 nM | viability, T/C [35]: 119% | viability, T/C [36]: 110% | viability, T/C [37]: 94% | viability, T/C [38]: 86.2% | viability, T/C [6]: 95.3% | viability, T/C [7]: 76.5% | viability, T/C [39]: 118% | viability, T/C [40]: 114% | viability, T/C [41]: 104% | viability, T/C [42]: 104% | viability, T/C [12]: 96.4% | viability, T/C [13]: 89.4% | viability, T/C [43]: 117% | viability, T/C [44]: 107% | viability, T/C [45]: 106% | viability, T/C [46]: 90.7% | viability, T/C [18]: 101% | viability, T/C [19]: 87.2% | viability, T/C [47]: 71.7% | viability, T/C [48]: 67% | viability, T/C [49]: 66.6% | viability, T/C [50]: 71.9% | viability, T/C [24]: 68.4% | viability, T/C [25]: 53.5% | viability, T/C (second compound 10 µM, first compound 0.000316 µM): 29.3% | viability, T/C (second compound 10 µM, first compound 0.001 µM): 24.5% | viability, T/C (second compound 10 µM, first compound 0.00316 µM): 22.8% | viability, T/C (second compound 10 µM, first compound 0.01 µM): 23% | viability, T/C [30]: 20.9% | viability, T/C [31]: 19.2%
